Test results: patent US20110065753A1, “METHODS OF TREATING POXVIRAL INFECTIONS” (priority 2009, published 2011)
Where “and” joins values, the source holds several entries; their conditions need not be identical. Identical values can stand only once.

Experiments:
Vaccinia NYCBOH strain = format: cell-based; conditions: read-out: IC50, inhibition of infectivity of Vaccinia virus
[1] = Iminosugar safety study, C57/B1/6 mice; conditions: oral suspension twice a day for 7 days at 100 and 10 mg/kg
[2] = Iminosugar safety study, BALB/c mice; conditions: for weight loss compared to vehicle only control: oral suspension twice a day for 7 days at 100 and 10 mg/kg
[3] = mouse, in vivo
Cowpox Brighton = format: in vivo, BALB/C mice; conditions: n=10

Compound: CCCCN1C[C@H](O)[C@@H](O)[C@H](O)[C@H]1CO [UV-1, N-Butyl deoxynojirimycin]
- IC50 (Vaccinia NYCBOH strain): 90 µM
- weight loss compared to vehicle only control [1]: did not show any significant signs of weight loss
- weight loss compared to vehicle only control [2]: did not show any significant signs of weight loss

Compound: CCCCCCCCCN1C[C@H](O)[C@@H](O)[C@H](O)[C@H]1CO [UV-2, N-Nonyl deoxynojirimycin]
- IC50 (Vaccinia NYCBOH strain): 21 µM

Compound: CCCOCCCCCCN1C[C@H](O)[C@@H](O)[C@H](O)[C@H]1CO [UV-3, N-(7-Oxadecyl)deoxynojirimycin]
- IC50 (Vaccinia NYCBOH strain): 7 µM

Compound: COCCCCCCCCCN1C[C@H](O)[C@@H](O)[C@H](O)[C@H]1CO [UV-4, N-(9-Methoxynonyl) deoxynojirimycin]
- weight loss or adverse effects [3]: no weight loss or adverse effects observed
- percentage of surviving mice (Cowpox Brighton): 100% and 70%
- IC50 (Vaccinia NYCBOH strain): 59 µM
- weight loss compared to vehicle only control [1]: did not show any significant signs of weight loss
- weight loss compared to vehicle only control [2]: did not show any significant signs of weight loss

Compound: [N-]=[N+]=Nc1ccc(NCCCCCCN2C[C@H](O)[C@@H](O)[C@H](O)[C@H]2CO)c([N+](=O)[O-])c1 [UV-5, N—(N-{4′-azido-2′-nitrophenyl}-6-aminohexyl)deoxynojirimycin]
- IC50 (Vaccinia NYCBOH strain): 3 µM
- weight loss compared to vehicle only control [1]: did not show any significant signs of weight loss
- general health, clinical signs ([2]; highest concentration (100 mg/kg twice a day, 7 days), symptoms ceased when treatment was done): signs of diarrhea, red urine, and a ruffled appearance
- weight loss compared to vehicle only control [2]: did not show any significant signs of weight loss
